Row | Compound | melting point
1 | CCNC(=S)Nc1ccc2ncc(-c3cnn(Cc4cccnc4)c3)nc2n1 [Compound 24, 1-Ethyl-3-[3-(1-pyridin-3-ylmethyl-1H-pyrazol-4-yl)-pyrido[2,3-b]pyrazin-6-yl]-thiourea] | 238 °C
2 | CCNC(=S)Nc1ccc2ncc(-c3cnn(Cc4cccc(N(C)C)c4)c3)nc2n1 [Compound 37, 1-{3-[1-(3-Dimethylamino-benzyl)-1H-pyrazol-4-yl]-pyrido[2,3-b]pyrazin-6-yl}-3-ethyl-thiourea] | 215 °C
3 | Cc1cccc(Cn2cc(-c3cnc4ccc(NC(=S)NCC(F)(F)F)nc4n3)cn2)c1 [Compound 51, 1-{3-[1-(3-Methyl-benzyl)-1H-pyrazol-4-yl]-pyrido[2,3-b]pyrazin-6-yl}-3-(2,2,2-trifluoro-ethyl)-thiourea] | 249 °C
4 | CCNC(=O)Nc1ccc2ncc(-c3cnn(CCCc4ccccc4)c3)nc2n1 [Compound 9, 1-Ethyl-3-{3-[1-(3-phenyl-propyl)-1H-pyrazol-4-yl]-pyrido[2,3-b]pyrazin-6-yl}-urea] | 251 °C
5 | CCNC(=O)Nc1ccc2ncc(-c3csc(C(=O)O)c3)nc2n1 [Compound 212, 4-[6-(3-Ethyl-ureido)-pyrido[2,3-b]pyrazin-3-yl]-thiophene-2-carboxylic acid] | 250 °C (dec.)
6 | CCNC(=S)Nc1ccc2ncc(-c3cnn(Cc4ccc(F)c(Cl)c4)c3)nc2n1 [Compound 38, 1-{3-[1-(3-Chloro-4-fluoro-benzyl)-1H-pyrazol-4-yl]-pyrido[2,3-b]pyrazin-6-yl}-3-ethyl-thiourea] | 235 to 238 °C
7 | CCNC(=O)Nc1ccc2ncc(-c3ccc(C)o3)nc2n1 [Compound 416, 1-Ethyl-3-[3-(5-methyl-furan-2-yl)-pyrido[2,3-b]pyrazin-6-yl]-urea] | 242 °C
8 | CCNC(=O)Nc1ccc2ncc(-c3cnn(Cc4ccc(OC(F)F)cc4)c3)nc2n1 [Compound 11, 1-{3-[1-(4-Difluoromethoxy-benzyl)-1H-pyrazol-4-yl]-pyrido[2,3-b]pyrazin-6-yl}-3-ethyl-urea] | 239 °C
9 | CCNC(=S)Nc1ccc2ncc(-c3cnn(Cc4ccccc4C)c3)nc2n1 [Compound 52, 1-Ethyl-3-{3-[1-(2-methyl-benzyl)-1H-pyrazol-4-yl]-pyrido[2,3-b]pyrazin-6-yl}-thiourea] | 252 to 255 °C
10 | CCNC(=S)Nc1ccc2ncc(-c3cnn(Cc4cc(C)cc(F)c4)c3)nc2n1 [Compound 25, 1-Ethyl-3-{3-[1-(3-fluoro-5-methyl-benzyl)-1H-pyrazol-4-yl]-pyrido[2,3-b]pyrazin-6-yl}-thiourea] | 257 to 259 °C
11 | CCNC(=S)Nc1ccc2ncc(-c3cnn(Cc4ccc(OC)c(O)c4)c3)nc2n1 [Compound 57, 1-Ethyl-3-{3-[1-(3-hydroxy-4-methoxy-benzyl)-1H-pyrazol-4-yl]-pyrido[2,3-b]pyrazin-6-yl}-thiourea] | 230 °C
12 | COc1cccc(Cn2cc(-c3cnc4ccc(NC(=S)NCC(F)(F)F)nc4n3)cn2)c1 [Compound 47, 1-{3-[1-(3-Methoxy-benzyl)-1H-pyrazol-4-yl]-pyrido[2,3-b]pyrazin-6-yl}-3-(2,2,2-trifluoro-ethyl)-thiourea] | 217 °C
13 | CCNC(=O)Nc1ccc2ncc(-c3ccc(CO)s3)nc2n1 [Compound 396, 1-Ethyl-3-[3-(5-hydroxymethyl-thiophen-2-yl)-pyrido[2,3-b]pyrazin-6-yl]-urea] | 222 °C
14 | CCNC(=O)Nc1ccc2ncc(-c3cnn(CCCCc4ccccc4)c3)nc2n1 [Compound 16, 1-Ethyl-3-{3-[1-(4-phenyl-butyl)-1H-pyrazol-4-yl]-pyrido[2,3-b]pyrazin-6-yl}-urea] | 182 °C
15 | CCNC(=O)Nc1ccc2ncc(-c3cnn(Cc4ccc(Cl)cc4)c3)nc2n1 [Compound 18, 1-{3-[1-(4-Chloro-benzyl)-1H-pyrazol-4-yl]-pyrido[2,3-b]pyrazin-6-yl}-3-ethyl-urea] | 240 to 244 °C
16 | COCNC(=S)Nc1ccc2ncc(-c3cnn(Cc4cccc(OC)c4)c3)nc2n1 [Compound 33, 1-{3-[1-(3-Methoxy-benzyl)-1H-pyrazol-4-yl]-pyrido[2,3-b]pyrazin-6-yl}-3-methoxymethyl-thiourea] | 187 °C
17 | CCNC(=O)Nc1ccc2ncc(-c3cnn(Cc4cccc(OC(F)F)c4)c3)nc2n1 [Compound 3, 1-{3-[1-(3-Difluoromethoxy-benzyl)-1H-pyrazol-4-yl]-pyrido[2,3-b]pyrazin-6-yl}-3-ethyl-urea] | 198 °C
18 | CCNC(=O)Nc1ccc2ncc(-c3cnn(Cc4ccc(C#N)cc4)c3)nc2n1 [Compound 10, 1-{3-[1-(4-Cyano-benzyl)-1H-pyrazol-4-yl]-pyrido[2,3-b]pyrazin-6-yl}-3-ethyl-urea] | 208 to 215 °C
19 | CCNC(=S)Nc1ccc2ncc(-c3cnn(Cc4ccc(OC)cc4)c3)nc2n1 [Compound 23, 1-Ethyl-3-{3-[1-(4-methoxy-benzyl)-1H-pyrazol-4-yl]-pyrido[2,3-b]pyrazin-6-yl}-thiourea] | 237 °C
20 | CCNC(=S)Nc1ccc2ncc(-c3cnn(Cc4ccc(Cl)cc4)c3)nc2n1 [Compound 50, 1-{3-[1-(4-Chloro-benzyl)-1H-pyrazol-4-yl]-pyrido[2,3-b]pyrazin-6-yl}-3-ethyl-thiourea] | 249 °C
21 | CCNC(=S)Nc1ccc2ncc(-c3cnn(Cc4ccc(C)cc4)c3)nc2n1 [Compound 20, 1-Ethyl-3-{3-[1-(4-methyl-benzyl)-1H-pyrazol-4-yl]-pyrido[2,3-b]pyrazin-6-yl}-thiourea] | 241 °C
22 | CCNC(=S)Nc1ccc2ncc(-c3cnn(CCc4ccccc4)c3)nc2n1 [Compound 53, 1-Ethyl-3-[3-(1-phenethyl-1H-pyrazol-4-yl)-pyrido[2,3-b]pyrazin-6-yl]-thiourea] | 231 to 233 °C

Now from value to compound:

Row | melting point | Compound
23 | 250 °C | CCNC(=O)Nc1ccc2ncc(-c3cnn(Cc4ccc(OC)c(O)c4)c3)nc2n1 [Compound 56, 1-Ethyl-3-{3-[1-(3-hydroxy-4-methoxy-benzyl)-1H-pyrazol-4-yl]-pyrido[2,3-b]pyrazin-6-yl}-urea]
24 | 217 to 220 °C | CCNC(=O)Nc1ccc2ncc(-c3cnn(Cc4ccc(C)cc4)c3)nc2n1 [Compound 15, 1-Ethyl-3-{3-[1-(4-methyl-benzyl)-1H-pyrazol-4-yl]-pyrido[2,3-b]pyrazin-6-yl}-urea]
25 | 232 °C | CCNC(=S)Nc1ccc2ncc(-c3cnn(Cc4cc(OC)c(OC)c(OC)c4)c3)nc2n1 [Compound 46, 1-Ethyl-3-{3-[1-(3,4,5-trimethoxy-benzyl)-1H-pyrazol-4-yl]-pyrido[2,3-b]pyrazin-6-yl}-thiourea]
26 | 219 °C | CCNC(=O)Nc1ccc2ncc(-c3cnn(Cc4cc(OC)c(OC)c(OC)c4)c3)nc2n1 [Compound 1, 1-Ethyl-3-{3-[1-(3,4,5-trimethoxy-benzyl)-1H-pyrazol-4-yl]-pyrido[2,3-b]pyrazin-6-yl}-urea]
27 | 225 °C | CCNC(=S)Nc1ccc2ncc(-c3cnn(Cc4cc(OC)ccc4OC)c3)nc2n1 [Compound 19, 1-{3-[1-(2,5-Dimethoxy-benzyl)-1H-pyrazol-4-yl]-pyrido[2,3-b]pyrazin-6-yl}-3-ethyl-thiourea]
28 | 208 to 210 °C | CCNC(=O)Nc1ccc2ncc(-c3cnn(Cc4cccc(C)c4)c3)nc2n1 [Compound 13, 1-Ethyl-3-{3-[1-(3-methyl-benzyl)-1H-pyrazol-4-yl]-pyrido[2,3-b]pyrazin-6-yl}-urea]
29 | 242 °C | CCNC(=O)Nc1ccc2ncc(-c3cnn(Cc4cccc(O)c4)c3)nc2n1 [Compound 4, 1-Ethyl-3-{3-[1-(3-hydroxy-benzyl)-1H-pyrazol-4-yl]-pyrido[2,3-b]pyrazin-6-yl}-urea]
30 | 214 to 219 °C | CCNC(=O)Nc1ccc2ncc(-c3cnn(Cc4ccc(F)c(Cl)c4)c3)nc2n1 [Compound 8, 1-{3-[1-(3-Chloro-4-fluoro-benzyl)-1H-pyrazol-4-yl]-pyrido[2,3-b]pyrazin-6-yl}-3-ethyl-urea]
31 | 188 °C | COCNC(=S)Nc1ccc2ncc(-c3cnn(Cc4ccc(OC)c(OC)c4)c3)nc2n1 [Compound 35, 1-{3-[1-(3,4-Dimethoxy-benzyl)-1H-pyrazol-4-yl]-pyrido[2,3-b]pyrazin-6-yl}-3-methoxymethyl-thiourea]
32 | 250 to 252 °C | CCNC(=O)Nc1ccc2ncc(-c3cnn(Cc4ccc(Br)c(C)c4)c3)nc2n1 [Compound 22, 1-{3-[1-(4-Bromo-3-methyl-benzyl)-1H-pyrazol-4-yl]-pyrido[2,3-b]pyrazin-6-yl}-3-ethyl-urea]
33 | 213 °C | CCNC(=S)Nc1ccc2ncc(-c3cnn(Cc4ccc(OC)c(OC)c4OC)c3)nc2n1 [Compound 43, 1-Ethyl-3-{3-[1-(2,3,4-trimethoxy-benzyl)-1H-pyrazol-4-yl]-pyrido[2,3-b]pyrazin-6-yl}-thiourea]
34 | 201 °C | CCNC(=O)Nc1ccc2ncc(-c3cnn(Cc4cccc(OCCOC)c4)c3)nc2n1 [Compound 66, 1-Ethyl-3-(3-{1-[3-(2-methoxy-ethoxy)-benzyl]-1H-pyrazol-4-yl}-pyrido[2,3-b]pyrazin-6-yl)-urea]
35 | 237 °C | CCNC(=O)Nc1ccc2ncc(-c3cnn(Cc4ccc(O)c(OC)c4)c3)nc2n1 [Compound 54, 1-Ethyl-3-{3-[1-(4-hydroxy-3-methoxy-benzyl)-1H-pyrazol-4-yl]-pyrido[2,3-b]pyrazin-6-yl}-urea]
36 | 218 °C | CCNC(=O)Nc1ccc2ncc(-c3cnn(Cc4cccc(S(C)(=O)=O)c4)c3)nc2n1 [Compound 64, 1-Ethyl-3-{3-[1-(3-methanesulfonyl-benzyl)-1H-pyrazol-4-yl]-pyrido[2,3-b]pyrazin-6-yl}-urea]
37 | 230 °C | CCNC(=S)Nc1ccc2ncc(-c3cnn(Cc4cc(OC)cc(OC)c4)c3)nc2n1 [Compound 39, 1-{3-[1-(3,5-Dimethoxy-benzyl)-1H-pyrazol-4-yl]-pyrido[2,3-b]pyrazin-6-yl}-3-ethyl-thiourea]
38 | 198 °C | COCCNC(=S)Nc1ccc2ncc(-c3cnn(Cc4ccc(OC)c(OC)c4)c3)nc2n1 [Compound 7, 1-{3-[1-(3,4-Dimethoxy-benzyl)-1H-pyrazol-4-yl]-pyrido[2,3-b]pyrazin-6-yl}-3-(2-methoxy-ethyl)-thiourea]

— patent US8912189B2, “Pyridopyrazine derivatives and their use” (Aeterna Zentaris GmbH, priority 2011, dated 2014)
